Here are results for 12 compounds from ChEMBL document CHEMBL1201862, “PubChem BioAssay data set” (2004).

Holding throughout (experiment): NCI-60 cell line screen, 48 h
Experiment [1] concerns A498.
In experiment [2] the test system is TK-10.
In experiment [3] the test system is EKVX.
In experiment [4] the test system is CCRF-CEM.
The subject of experiment [5] is NCI-H460.
Experiment [6] deals with SW-620.
For experiment [7], the system named is HCT-15.
For experiment [8], the system named is ACHN.
Experiment [9] concerns UO-31.
The subject of experiment [10] is K562.
In experiment [11] the test system is DLD-1.
Experiment [12] concerns OVCAR-4.
In experiment [13] the test system is U-251.
Experiment [14] has as its system HT-29.
Experiment [15] relates to RPMI-8226.
The test system of experiment [16] is SK-MEL-2.
In experiment [17] the test system is OVCAR-5.
For experiment [18], the system named is HOP-92.

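Where inhibition never reached the appropriate level, the endpoint shown equals the highest concentration tested. Otherwise, values were interpolated linearly from a five-concentration, 48-hour dose response in 96-well plates. GI50 marks 50% less growth.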 The source made the active and inactive calls. No stated cut-off is given here; in the data, active = GI50 up to about 1.1 µM and inactive = higher. Where only a bound is given, the exact number is not on record here.

With `COc1ccc(C(=O)O/N=C2\CCCC\C2=C/c2ccccc2)cc1`, the GI50 in [1] was 74.8 µM (inactive); in experiment [2] it was 68.7 µM (inactive); in experiment [3], > 100 µM (inactive); in experiment [4], > 100 µM (inactive); in [5], > 100 µM (inactive); in experiment [6], > 100 µM (inactive). The GI50 is > 100 µM in experiment [7]; 67.3 µM (inactive) in experiment [8]; > 100 µM (inactive) in experiment [9]; > 10 µM (inactive) in [10]; > 100 µM (inactive) in [11]; 27.6 µM (inactive) in experiment [12]. The GI50 in experiment [13] is 57.3 µM (inactive); in experiment [14], > 100 µM (inactive).

With `CC(C)NC(C)C(C)c1ccccc1` (stereo not drawn), the GI50 in experiment [1], in experiment [2], in experiment [3], in experiment [4], in experiment [5] and in experiment [6] was > 100 µM (inactive) throughout. Besides, the GI50 in [15], in [8], in experiment [9], in experiment [10], in [11] and in [12] was > 100 µM (inactive) in each case. The GI50 in experiment [16], in experiment [13] and in experiment [14] was > 100 µM (inactive) throughout.

`Cc1nc2cc(N)c(F)cc2[nH]1`: the GI50 in experiment [1], in [2], in experiment [3], in experiment [4], in [5] and in [6] was > 100 µM (inactive) each time. Further, the GI50 in [17], in experiment [8], in experiment [9], in experiment [10], in experiment [11] and in experiment [12] was > 100 µM (inactive) each time. Also, the GI50 in experiment [16], in experiment [13], in experiment [18] and in experiment [14] was > 100 µM (inactive) each time.

With `Cc1cccc(C)c1N1C(=O)C(=O)C(c2nc3ccccc3s2)/C(=N\N)C1=O` (stereo not drawn), the GI50 is > 100 µM (inactive) in experiment [1]; > 100 µM (inactive) in [2]; 47 µM (inactive) in experiment [3]; > 100 µM (inactive) in [5]; > 100 µM (inactive) in [6]; > 100 µM (inactive) in experiment [17]. Moreover, the GI50 in [15] was 39.9 µM (inactive); in experiment [7], > 100 µM; in experiment [8], 62.1 µM (inactive); in [9], > 100 µM (inactive); in experiment [10], 31.8 µM (inactive); in [11], > 100 µM (inactive). In addition, the GI50 in experiment [12], in experiment [16], in experiment [13], in experiment [18] and in [14] was > 100 µM (inactive) throughout.

Regarding `CC(C)C(=O)N[C@@H](C)C(=O)N(Cc1ccc2ccccc2c1)N=O`, the GI50 is 58.2 µM (inactive) in experiment [1]; > 100 µM (inactive) in experiment [2]; > 100 µM (inactive) in [3]; 61.4 µM (inactive) in experiment [4]; 82 µM (inactive) in experiment [5]; 55.5 µM (inactive) in experiment [6]. In addition, the GI50 was 48.8 µM (inactive) in experiment [17]; 43.6 µM (inactive) in experiment [15]; 77.4 µM in [7]; > 100 µM (inactive) in experiment [8]; 30 µM (inactive) in experiment [9]; 36.1 µM (inactive) in [10]. In addition, the GI50 in experiment [11] is > 100 µM (inactive); in experiment [12] it was 54.7 µM (inactive); in [16] it was 98.9 µM (inactive); in [13] it was 72.4 µM (inactive); in experiment [14] it was > 100 µM (inactive).

`COC(=O)C(Cc1nc2ccc(Cl)cc2nc1O)/C(=N\N)C(=O)Nc1cc(C)c(Cl)cc1S(=O)(=O)O` (stereo not drawn): the GI50 in experiment [1] is 70.3 µM (inactive); in [3] it was > 100 µM (inactive); in experiment [4], 43.1 µM (inactive); in [5], > 100 µM (inactive); in experiment [6], > 10 µM (inactive); in experiment [17], 75.7 µM (inactive). Besides, the GI50 in [15] is 88.3 µM (inactive); in experiment [7], > 100 µM; in experiment [8], > 100 µM (inactive); in [9], > 100 µM (inactive); in experiment [10] it was > 100 µM (inactive); in experiment [11] it was > 100 µM (inactive). The GI50 was > 100 µM (inactive) in experiment [12]; > 100 µM (inactive) in [16]; > 100 µM (inactive) in experiment [13]; 24.3 µM (inactive) in experiment [18]; > 100 µM (inactive) in experiment [14].

As for `CCOC(=O)C(OCC1CC=CCC1)Sc1ccccc1` (stereo not drawn), the GI50 in experiment [1], in experiment [2], in experiment [3], in experiment [4], in [5] and in experiment [6] was > 100 µM (inactive) throughout. The GI50 in experiment [17] was > 100 µM (inactive); in [15], > 100 µM (inactive); in [7], > 100 µM; in [8] it was > 100 µM (inactive); in experiment [9], > 100 µM (inactive); in experiment [10], > 100 µM (inactive). Also, the GI50 in experiment [11], in [16], in experiment [13], in [18] and in experiment [14] was > 100 µM (inactive) each time.

Regarding `CC(C)=CC(=O)CC(=O)C(=O)NCCNC(=O)C(=O)CC(=O)C=C(C)C`, the GI50 in experiment [1], in experiment [2], in experiment [3], in [5], in experiment [6] and in experiment [17] was > 50 µM (inactive) each time. For the same compound, the GI50 is > 50 µM (inactive) in experiment [15]; > 50 µM in experiment [7]; > 50 µM (inactive) in experiment [8]; > 50 µM (inactive) in [9]; > 50 µM (inactive) in [11]; > 50 µM (inactive) in experiment [12]. Moreover, the GI50 in experiment [16], in experiment [13], in [18] and in [14] was > 50 µM (inactive) throughout.

In the case of `O=C1C=C2CCCC2C(C(=O)O)(C(=O)O)C1` (stereo not drawn), the GI50 in experiment [1], in experiment [2], in experiment [3], in experiment [4], in experiment [5] and in [6] was > 100 µM (inactive) throughout. Moreover, the GI50 is > 100 µM (inactive) in experiment [15]; > 100 µM in experiment [7]; > 100 µM (inactive) in experiment [9]; > 100 µM (inactive) in experiment [10]; > 100 µM (inactive) in experiment [11]; > 100 µM (inactive) in experiment [12]. The GI50 in experiment [16], in experiment [13], in experiment [18] and in [14] was > 100 µM (inactive) in each case.

On to `C#Cc1ccccc1N1C(=O)C=CC1=O`, for which the GI50 in [1], in [2], in experiment [3], in [4], in experiment [5] and in experiment [6] was > 100 µM (inactive) each time. Further, the GI50 in experiment [17], in experiment [15], in experiment [8], in experiment [9], in experiment [10] and in [11] was > 100 µM (inactive) in each case. Moreover, the GI50 in experiment [12], in experiment [16], in [13] and in [14] was > 100 µM (inactive) each time.

Take `C#CCNC(=O)NCCCC(NC(C)=O)C(=O)NCc1ccccc1` (stereo not drawn): the GI50 in experiment [1], in [2], in experiment [3], in experiment [4], in experiment [5] and in experiment [6] was > 100 µM (inactive) each time. In addition, the GI50 in experiment [17] was > 100 µM (inactive); in [15], > 100 µM (inactive); in [7], > 100 µM; in [8], > 100 µM (inactive); in experiment [9], > 100 µM (inactive); in [10], > 100 µM (inactive). The GI50 in experiment [11], in experiment [12], in [13], in experiment [18] and in experiment [14] was > 100 µM (inactive) in each case.

With `CCCC(=O)C(CC)/C(CCC(=O)N(Cc1ccccc1)Cc1ccccc1)=N/NC(=O)C[N+](C)(C)C` (stereo not drawn), the GI50 in experiment [1], in experiment [3], in experiment [4], in [5], in experiment [6] and in [17] was > 100 µM (inactive) throughout. The GI50 in [8], in [9], in experiment [10], in [11], in experiment [12] and in [16] was > 100 µM (inactive) throughout. The GI50 in experiment [13], in experiment [18] and in [14] was > 100 µM (inactive) throughout.
